# PubChem BioAssay (NCI)
#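 Results reflect a 48-hour exposure of cells in 96-well plates to compound at five concentrations. At the TGI there is no net growth.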 Where a SMILES comes first, the peptide text is derived from it.
# Key:
# Assay in all cases: inhibition of tumour cell growth, NCI panel, 48 h
# NCI/ADR-RES ovarian = test system: NCI/ADR-RES ovarian
# SN12C renal = test system: SN12C renal
# SF-295 CNS = test system: SF-295 CNS
# CAKI-1 renal = test system: CAKI-1 renal
# HT29 colon = test system: HT29 colon
# ACHN renal = test system: ACHN renal
# HCC-2998 colon = test system: HCC-2998 colon
# UACC-62 melanoma = test system: UACC-62 melanoma
# RPMI-8226 leukemia = test system: RPMI-8226 leukemia
# HOP-92 NSCLC = test system: HOP-92 NSCLC
# OVCAR-3 ovarian = test system: OVCAR-3 ovarian
# LOX IMVI melanoma = test system: LOX IMVI melanoma
# COLO 205 colon = test system: COLO 205 colon
# SNB-75 CNS = test system: SNB-75 CNS
# UO-31 renal = test system: UO-31 renal
# A498 renal = test system: A498 renal
# MOLT-4 leukemia = test system: MOLT-4 leukemia
# PC-3 prostate = test system: PC-3 prostate
# OVCAR-4 ovarian = test system: OVCAR-4 ovarian
# MDA-N = test system: MDA-N
# CCRF-CEM leukemia = test system: CCRF-CEM leukemia
# OVCAR-5 ovarian = test system: OVCAR-5 ovarian
# EKVX NSCLC = test system: EKVX NSCLC
# HS 578T breast = test system: HS 578T breast
# NCI-H522 lung = test system: NCI-H522 lung
# MDA-MB-231 breast = test system: MDA-MB-231 breast
# KM12 colon = test system: KM12 colon
# SR leukemia = test system: SR leukemia
# MDA-MB-435 = test system: MDA-MB-435
# SK-OV-3 ovarian = test system: SK-OV-3 ovarian
# IGROV1 ovarian = test system: IGROV1 ovarian
# U251 CNS = test system: U251 CNS
# SK-MEL-2 melanoma = test system: SK-MEL-2 melanoma
# MALME-3M melanoma = test system: MALME-3M melanoma
# SW-620 colon = test system: SW-620 colon
# SF-268 CNS = test system: SF-268 CNS
# HCT-116 colon = test system: HCT-116 colon
# TK-10 renal = test system: TK-10 renal
# T-47D breast = test system: T-47D breast
# UACC-257 melanoma = test system: UACC-257 melanoma
# MCF7 breast = test system: MCF7 breast
# SNB-19 CNS = test system: SNB-19 CNS
# SK-MEL-28 melanoma = test system: SK-MEL-28 melanoma
# K-562 leukemia = test system: K-562 leukemia
# SK-MEL-5 melanoma = test system: SK-MEL-5 melanoma
# 786-0 renal = test system: 786-0 renal
# HCT-15 colon = test system: HCT-15 colon
# NCI-H226 lung = test system: NCI-H226 lung
# DU-145 prostate = test system: DU-145 prostate
# NCI-H460 lung = test system: NCI-H460 lung
# M14 melanoma = test system: M14 melanoma
# NCI-H23 lung = test system: NCI-H23 lung
# BT-549 breast = test system: BT-549 breast
# A549 NSCLC = test system: A549 NSCLC
# HOP-62 NSCLC = test system: HOP-62 NSCLC
# OVCAR-8 ovarian = test system: OVCAR-8 ovarian
# SF-539 CNS = test system: SF-539 CNS
# RXF 393 renal = test system: RXF 393 renal
# HL-60(TB) leukemia = test system: HL-60(TB) leukemia
smiles,measurement,setting,value
COc1ccc2[nH]c3c(c2c1)CCc1c(OC)cccc1-3,TGI,NCI/ADR-RES ovarian,> 100 µM
same,TGI,SN12C renal,> 100 µM
same,TGI,SF-295 CNS,> 100 µM
same,TGI,CAKI-1 renal,> 100 µM
same,TGI,HT29 colon,> 100 µM
same,TGI,ACHN renal,> 100 µM
same,TGI,HCC-2998 colon,> 100 µM
same,TGI,UACC-62 melanoma,> 100 µM
same,TGI,RPMI-8226 leukemia,> 100 µM
same,TGI,HOP-92 NSCLC,> 100 µM
same,TGI,OVCAR-3 ovarian,> 100 µM
same,TGI,LOX IMVI melanoma,> 100 µM
same,TGI,COLO 205 colon,> 100 µM
same,TGI,SNB-75 CNS,> 100 µM
same,TGI,UO-31 renal,> 100 µM
same,TGI,A498 renal,> 100 µM
same,TGI,MOLT-4 leukemia,> 100 µM
same,TGI,PC-3 prostate,> 100 µM
same,TGI,OVCAR-4 ovarian,> 100 µM
same,TGI,MDA-N,> 100 µM
same,TGI,CCRF-CEM leukemia,> 100 µM
same,TGI,OVCAR-5 ovarian,> 100 µM
same,TGI,EKVX NSCLC,> 100 µM
same,TGI,HS 578T breast,> 100 µM
same,TGI,NCI-H522 lung,> 100 µM
same,TGI,MDA-MB-231 breast,> 100 µM
same,TGI,KM12 colon,> 100 µM
same,TGI,SR leukemia,> 100 µM
same,TGI,MDA-MB-435,> 100 µM
same,TGI,SK-OV-3 ovarian,> 100 µM
same,TGI,IGROV1 ovarian,> 100 µM
same,TGI,U251 CNS,> 100 µM
same,TGI,SK-MEL-2 melanoma,> 100 µM
same,TGI,MALME-3M melanoma,> 100 µM
same,TGI,SW-620 colon,> 100 µM
same,TGI,SF-268 CNS,> 100 µM
same,TGI,HCT-116 colon,> 100 µM
same,TGI,TK-10 renal,> 100 µM
same,TGI,T-47D breast,> 100 µM
same,TGI,UACC-257 melanoma,> 100 µM
same,TGI,MCF7 breast,> 100 µM
same,TGI,SNB-19 CNS,> 100 µM
same,TGI,SK-MEL-28 melanoma,> 100 µM
same,TGI,K-562 leukemia,> 100 µM
same,TGI,SK-MEL-5 melanoma,> 100 µM
same,TGI,786-0 renal,> 100 µM
same,TGI,HCT-15 colon,> 100 µM
same,TGI,NCI-H226 lung,> 100 µM
same,TGI,DU-145 prostate,> 100 µM
same,TGI,NCI-H460 lung,> 100 µM
same,TGI,M14 melanoma,> 100 µM
same,TGI,NCI-H23 lung,> 100 µM
same,TGI,BT-549 breast,> 100 µM
same,TGI,A549 NSCLC,> 100 µM
same,TGI,HOP-62 NSCLC,> 100 µM
same,TGI,OVCAR-8 ovarian,> 100 µM
CC(=O)NC(CS)C(=O)NC(CO)C(=O)NC(CO)C(=O)NC(Cc1c[nH]c2ccccc12)C(=O)N1CCCC1C(=O)NC(CO)C(=O)NC(Cc1c[nH]c2ccccc12)C(=O)NC(Cc1c[nH]cn1)C(=O)NC(CO)C(=O)NC(Cc1c[nH]c2ccccc12)C(=O)NCC(=O)NCC(=O)NC(C)C(=O)NC(CCC(N)=O)C(=O)NC(CCCCN)C(=O)NC(C)C(=O)NC(CCCNC(=N)N)C(=O)NC(CCCCN)C(N)=O (centres undefined) (Ac-CSSWPSWHSWGGAQKARK-NH2; configuration not given here),TGI,NCI/ADR-RES ovarian,> 50 µM
same,TGI,SN12C renal,> 50 µM
same,TGI,SF-295 CNS,> 50 µM
same,TGI,CAKI-1 renal,33.6 µM
same,TGI,HT29 colon,> 50 µM
same,TGI,ACHN renal,> 50 µM
same,TGI,UACC-62 melanoma,24 µM
same,TGI,SF-539 CNS,> 50 µM
same,TGI,RPMI-8226 leukemia,> 50 µM
same,TGI,HOP-92 NSCLC,> 50 µM
same,TGI,OVCAR-3 ovarian,> 50 µM
same,TGI,LOX IMVI melanoma,> 50 µM
same,TGI,COLO 205 colon,28.2 µM
same,TGI,SNB-75 CNS,42.1 µM
same,TGI,UO-31 renal,> 50 µM
same,TGI,A498 renal,> 50 µM
same,TGI,MOLT-4 leukemia,> 50 µM
same,TGI,PC-3 prostate,> 50 µM
same,TGI,OVCAR-4 ovarian,> 50 µM
same,TGI,MDA-N,> 50 µM
same,TGI,CCRF-CEM leukemia,> 50 µM
same,TGI,OVCAR-5 ovarian,> 50 µM
same,TGI,EKVX NSCLC,> 50 µM
same,TGI,HS 578T breast,> 50 µM
same,TGI,NCI-H522 lung,> 50 µM
same,TGI,MDA-MB-231 breast,19.7 µM
same,TGI,KM12 colon,32.1 µM
same,TGI,SR leukemia,43.4 µM
same,TGI,MDA-MB-435,> 50 µM
same,TGI,SK-OV-3 ovarian,> 50 µM
same,TGI,IGROV1 ovarian,> 50 µM
same,TGI,U251 CNS,27.7 µM
same,TGI,SK-MEL-2 melanoma,> 50 µM
same,TGI,RXF 393 renal,24.9 µM
same,TGI,MALME-3M melanoma,20.3 µM
same,TGI,SW-620 colon,> 50 µM
same,TGI,SF-268 CNS,49.6 µM
same,TGI,HCT-116 colon,> 50 µM
same,TGI,TK-10 renal,> 50 µM
same,TGI,T-47D breast,28.5 µM
same,TGI,UACC-257 melanoma,19.6 µM
same,TGI,MCF7 breast,> 50 µM
same,TGI,HL-60(TB) leukemia,34.5 µM
same,TGI,SNB-19 CNS,> 50 µM
same,TGI,SK-MEL-28 melanoma,20.9 µM
same,TGI,K-562 leukemia,28.5 µM
same,TGI,SK-MEL-5 melanoma,22.4 µM
same,TGI,786-0 renal,19.5 µM
same,TGI,HCT-15 colon,> 50 µM
same,TGI,NCI-H226 lung,> 50 µM
same,TGI,DU-145 prostate,> 50 µM
same,TGI,NCI-H460 lung,35.5 µM
same,TGI,M14 melanoma,> 50 µM
same,TGI,NCI-H23 lung,48.8 µM
same,TGI,BT-549 breast,41 µM
same,TGI,A549 NSCLC,> 50 µM
same,TGI,HOP-62 NSCLC,> 50 µM
same,TGI,OVCAR-8 ovarian,> 50 µM
